Measurements from the kinase profiling compilation of Christmann-Franck et al. (2016).

What was measured:
Test in all cases: KINOMEscan competition binding
Conditions in all cases: compound 10.0 µM
CDK9 (human) = CDK9 (human) (UniProt P50750)
STK4 (human) = STK4 (human) (UniProt Q13043)
STK24 (human) = STK24 (human) (UniProt Q9Y6E0)
ULK3 (human) = ULK3 (human) (UniProt Q6PHR2)
MAP4K4 (human) = MAP4K4 (human) (UniProt O95819)
MAP3K6 (human) = MAP3K6 (human) (UniProt O95382)
MELK (human) = MELK (human) (UniProt Q14680)
MAP3K13 (human) = MAP3K13 (human) (UniProt O43283)
MAP3K13 (human), sequence (O43283 whole entry, looked up): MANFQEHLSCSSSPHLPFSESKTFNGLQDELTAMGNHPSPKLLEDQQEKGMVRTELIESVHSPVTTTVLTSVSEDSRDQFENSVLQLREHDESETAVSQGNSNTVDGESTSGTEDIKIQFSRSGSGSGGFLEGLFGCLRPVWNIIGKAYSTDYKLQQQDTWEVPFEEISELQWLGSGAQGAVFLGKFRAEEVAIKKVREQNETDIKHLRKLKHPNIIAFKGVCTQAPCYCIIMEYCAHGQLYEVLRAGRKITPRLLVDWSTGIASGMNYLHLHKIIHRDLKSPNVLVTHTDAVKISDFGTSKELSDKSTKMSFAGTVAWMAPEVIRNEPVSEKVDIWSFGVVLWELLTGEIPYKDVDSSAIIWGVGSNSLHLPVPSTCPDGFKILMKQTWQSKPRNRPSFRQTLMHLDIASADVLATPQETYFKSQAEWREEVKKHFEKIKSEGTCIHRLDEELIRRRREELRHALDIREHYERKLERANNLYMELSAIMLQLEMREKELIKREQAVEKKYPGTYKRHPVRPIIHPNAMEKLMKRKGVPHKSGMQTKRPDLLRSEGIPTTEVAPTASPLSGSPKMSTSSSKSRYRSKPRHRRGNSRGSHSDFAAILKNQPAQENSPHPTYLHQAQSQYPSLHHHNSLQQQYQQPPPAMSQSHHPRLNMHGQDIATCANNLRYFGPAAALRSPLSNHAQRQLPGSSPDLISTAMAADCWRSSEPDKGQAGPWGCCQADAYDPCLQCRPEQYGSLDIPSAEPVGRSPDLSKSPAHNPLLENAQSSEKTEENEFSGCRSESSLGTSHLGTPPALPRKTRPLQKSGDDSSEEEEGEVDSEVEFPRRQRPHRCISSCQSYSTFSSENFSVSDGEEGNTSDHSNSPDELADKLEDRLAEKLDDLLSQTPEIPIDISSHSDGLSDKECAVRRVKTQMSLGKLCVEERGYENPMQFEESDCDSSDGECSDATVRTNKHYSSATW

CDKL3 (human) = CDKL3 (human) (UniProt Q8IVW4)
RPS6KA1 KD2 (human) = RPS6KA1 KD2 (human) (UniProt Q15418)
PTK6 (human) = PTK6 (human) (UniProt Q13882)
PAK1 (human) = PAK1 (human) (UniProt Q13153)
CDC2L2 (human) = CDC2L2 (human) (UniProt Q9UQ88)
GRK1 (human) = GRK1 (human) (UniProt Q15835)
BRSK2 (human) = BRSK2 (human) (UniProt Q8IWQ3)
STK39 (human) = STK39 (human) (UniProt Q9UEW8)
STK38 (human) = STK38 (human) (UniProt Q15208)
CHEK1 (human) = CHEK1 (human) (UniProt O14757)
MAP4K2 (human) = MAP4K2 (human) (UniProt Q12851)
KDR (human) = KDR (human) (UniProt P35968)
PKN1 (human) = PKN1 (human) (UniProt Q16512)
STK32B (human) = STK32B (human) (UniProt Q9NY57)
STK32B (human), sequence (Q9NY57 whole entry, looked up): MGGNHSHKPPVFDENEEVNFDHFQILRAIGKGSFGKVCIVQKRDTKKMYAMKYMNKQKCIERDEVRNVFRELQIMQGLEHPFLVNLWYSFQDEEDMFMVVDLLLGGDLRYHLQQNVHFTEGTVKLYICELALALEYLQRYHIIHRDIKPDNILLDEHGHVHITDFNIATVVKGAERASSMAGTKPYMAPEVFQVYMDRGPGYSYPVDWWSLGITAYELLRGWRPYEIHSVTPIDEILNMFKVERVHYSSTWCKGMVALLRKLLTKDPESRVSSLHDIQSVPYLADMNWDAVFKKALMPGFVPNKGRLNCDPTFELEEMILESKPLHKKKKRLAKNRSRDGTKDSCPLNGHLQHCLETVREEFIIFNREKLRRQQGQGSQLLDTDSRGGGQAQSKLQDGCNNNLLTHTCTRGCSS

MAPK13 (human) = MAPK13 (human) (UniProt O15264)
PRKCQ (human) = PRKCQ (human) (UniProt Q04759)
FGFR2 (human) = FGFR2 (human) (UniProt P21802)
FGFR2 (human), sequence (P21802 whole entry, looked up): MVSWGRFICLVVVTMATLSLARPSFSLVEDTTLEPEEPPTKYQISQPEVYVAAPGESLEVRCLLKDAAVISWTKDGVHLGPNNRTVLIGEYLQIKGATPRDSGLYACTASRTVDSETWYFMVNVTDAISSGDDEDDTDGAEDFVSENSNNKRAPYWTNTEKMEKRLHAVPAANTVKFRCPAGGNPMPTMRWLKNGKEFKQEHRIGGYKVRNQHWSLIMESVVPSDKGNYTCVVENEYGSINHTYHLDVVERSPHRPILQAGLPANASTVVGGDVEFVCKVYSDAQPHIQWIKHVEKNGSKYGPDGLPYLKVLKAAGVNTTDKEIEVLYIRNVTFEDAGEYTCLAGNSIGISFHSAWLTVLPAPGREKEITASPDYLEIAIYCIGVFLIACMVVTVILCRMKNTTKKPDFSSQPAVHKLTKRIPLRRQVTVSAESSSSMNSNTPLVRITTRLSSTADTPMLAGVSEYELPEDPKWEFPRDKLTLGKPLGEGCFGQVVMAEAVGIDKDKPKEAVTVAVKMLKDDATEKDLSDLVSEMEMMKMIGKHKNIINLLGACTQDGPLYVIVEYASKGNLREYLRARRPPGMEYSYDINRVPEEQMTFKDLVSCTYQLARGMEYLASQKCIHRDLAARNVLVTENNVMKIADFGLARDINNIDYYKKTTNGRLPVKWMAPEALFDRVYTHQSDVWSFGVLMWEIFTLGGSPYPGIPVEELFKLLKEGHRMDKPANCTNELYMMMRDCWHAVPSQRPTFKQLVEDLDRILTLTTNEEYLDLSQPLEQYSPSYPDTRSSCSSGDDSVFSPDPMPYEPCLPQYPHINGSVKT

CSNK1G2 (human) = CSNK1G2 (human) (UniProt P78368)
CDK15 (human) = CDK15 (human) (UniProt Q96Q40)
CDK15 (human), sequence (Q96Q40 whole entry, looked up): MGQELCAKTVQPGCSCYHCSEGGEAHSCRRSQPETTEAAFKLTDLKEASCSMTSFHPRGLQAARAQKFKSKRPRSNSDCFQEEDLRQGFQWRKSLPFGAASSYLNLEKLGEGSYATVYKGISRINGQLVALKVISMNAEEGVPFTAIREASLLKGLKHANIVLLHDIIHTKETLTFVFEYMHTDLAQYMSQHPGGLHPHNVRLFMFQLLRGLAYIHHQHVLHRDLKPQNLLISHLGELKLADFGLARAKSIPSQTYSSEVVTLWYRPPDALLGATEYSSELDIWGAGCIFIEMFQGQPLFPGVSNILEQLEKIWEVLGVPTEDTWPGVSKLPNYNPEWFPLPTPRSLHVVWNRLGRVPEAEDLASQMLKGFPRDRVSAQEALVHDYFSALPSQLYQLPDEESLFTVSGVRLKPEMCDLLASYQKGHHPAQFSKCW

DDR1 (human) = DDR1 (human) (UniProt Q08345)
CLK4 (human) = CLK4 (human) (UniProt Q9HAZ1)
CLK4 (human), sequence (Q9HAZ1 whole entry, looked up): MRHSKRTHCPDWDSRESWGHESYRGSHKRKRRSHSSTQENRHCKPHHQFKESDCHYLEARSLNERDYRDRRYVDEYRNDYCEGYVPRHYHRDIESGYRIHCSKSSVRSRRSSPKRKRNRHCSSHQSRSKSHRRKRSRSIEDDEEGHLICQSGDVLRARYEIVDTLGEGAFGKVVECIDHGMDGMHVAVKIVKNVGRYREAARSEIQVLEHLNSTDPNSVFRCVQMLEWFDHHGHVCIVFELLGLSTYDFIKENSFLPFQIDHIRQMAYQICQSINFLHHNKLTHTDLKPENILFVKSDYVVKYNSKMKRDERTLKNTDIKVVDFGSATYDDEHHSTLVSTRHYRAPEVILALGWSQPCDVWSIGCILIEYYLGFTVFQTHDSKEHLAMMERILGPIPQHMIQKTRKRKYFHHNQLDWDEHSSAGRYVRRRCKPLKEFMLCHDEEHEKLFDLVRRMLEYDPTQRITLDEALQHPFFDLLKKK

CLK1 (human) = CLK1 (human) (UniProt P49759)
CAMK1D (human) = CAMK1D (human) (UniProt Q8IU85)
PRKCD (human) = PRKCD (human) (UniProt Q05655)
PRKCD (human), sequence (Q05655 whole entry, looked up): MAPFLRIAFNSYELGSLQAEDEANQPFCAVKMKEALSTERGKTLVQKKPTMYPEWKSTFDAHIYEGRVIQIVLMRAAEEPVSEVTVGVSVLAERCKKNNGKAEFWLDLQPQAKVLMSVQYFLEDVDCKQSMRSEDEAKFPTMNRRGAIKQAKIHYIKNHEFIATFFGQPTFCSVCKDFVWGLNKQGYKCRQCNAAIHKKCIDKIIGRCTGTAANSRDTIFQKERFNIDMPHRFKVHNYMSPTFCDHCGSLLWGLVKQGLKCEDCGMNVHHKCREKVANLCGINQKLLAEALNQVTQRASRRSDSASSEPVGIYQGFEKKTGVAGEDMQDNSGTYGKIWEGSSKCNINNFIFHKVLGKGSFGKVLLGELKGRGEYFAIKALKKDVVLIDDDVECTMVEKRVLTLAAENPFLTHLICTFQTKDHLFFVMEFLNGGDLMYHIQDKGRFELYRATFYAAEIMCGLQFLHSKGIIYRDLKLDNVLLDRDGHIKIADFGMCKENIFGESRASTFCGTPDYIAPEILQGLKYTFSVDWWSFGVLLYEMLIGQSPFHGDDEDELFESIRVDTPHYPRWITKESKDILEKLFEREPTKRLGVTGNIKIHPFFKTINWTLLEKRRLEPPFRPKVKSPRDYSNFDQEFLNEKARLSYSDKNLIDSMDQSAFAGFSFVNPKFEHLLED

MAP3K9 (human) = MAP3K9 (human) (UniProt P80192)
HIPK1 (human) = HIPK1 (human) (UniProt Q86Z02)
BLK (human) = BLK (human) (UniProt P51451)
CAMK2D (human) = CAMK2D (human) (UniProt Q13557)
CAMK2D (human), sequence (Q13557 whole entry, looked up): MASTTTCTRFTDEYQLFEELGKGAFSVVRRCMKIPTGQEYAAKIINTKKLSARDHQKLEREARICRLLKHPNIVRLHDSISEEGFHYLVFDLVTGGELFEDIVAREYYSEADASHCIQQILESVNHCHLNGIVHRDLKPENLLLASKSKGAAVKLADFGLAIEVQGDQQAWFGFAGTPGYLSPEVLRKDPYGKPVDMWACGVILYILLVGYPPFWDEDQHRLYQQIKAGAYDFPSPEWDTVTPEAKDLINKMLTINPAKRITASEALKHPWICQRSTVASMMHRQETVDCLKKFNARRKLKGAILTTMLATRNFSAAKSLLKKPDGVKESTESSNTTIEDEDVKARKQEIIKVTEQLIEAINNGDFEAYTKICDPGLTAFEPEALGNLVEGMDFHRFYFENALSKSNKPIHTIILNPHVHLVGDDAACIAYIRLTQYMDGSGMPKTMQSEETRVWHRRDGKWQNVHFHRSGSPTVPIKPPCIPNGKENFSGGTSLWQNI

MYLK (human) = MYLK (human) (UniProt Q15746)
HUNK (human) = HUNK (human) (UniProt P57058)
TAOK2 (human) = TAOK2 (human) (UniProt Q9UL54)
STK32A (human) = STK32A (human) (UniProt Q8WU08)

STK4 (human), sequence (Q13043 whole entry, looked up): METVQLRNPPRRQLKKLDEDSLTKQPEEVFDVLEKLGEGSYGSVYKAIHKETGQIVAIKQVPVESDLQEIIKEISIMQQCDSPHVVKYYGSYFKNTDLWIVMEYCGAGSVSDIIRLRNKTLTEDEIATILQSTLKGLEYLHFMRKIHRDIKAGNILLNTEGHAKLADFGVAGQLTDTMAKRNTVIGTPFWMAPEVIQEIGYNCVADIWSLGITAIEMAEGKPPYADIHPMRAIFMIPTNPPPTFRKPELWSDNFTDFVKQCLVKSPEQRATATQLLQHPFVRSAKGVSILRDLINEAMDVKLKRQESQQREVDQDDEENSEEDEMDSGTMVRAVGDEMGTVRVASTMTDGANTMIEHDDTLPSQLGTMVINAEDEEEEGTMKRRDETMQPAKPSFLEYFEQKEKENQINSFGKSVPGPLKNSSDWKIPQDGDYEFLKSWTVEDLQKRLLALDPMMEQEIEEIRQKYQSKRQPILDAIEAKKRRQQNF

| SMILES | kinase still bound, per cent of control (CDK9 (human)) [%] | kinase still bound, per cent of control (STK4 (human)) [%] | kinase still bound, per cent of control (STK24 (human)) [%] | kinase still bound, per cent of control (ULK3 (human)) [%] | kinase still bound, per cent of control (MAP3K6 (human)) [%] | kinase still bound, per cent of control (MELK (human)) [%] | kinase still bound, per cent of control (MAP3K13 (human)) [%] | kinase still bound, per cent of control (CDKL3 (human)) [%] | kinase still bound, per cent of control (RPS6KA1 KD2 (human)) [%] | kinase still bound, per cent of control (PTK6 (human)) [%] | kinase still bound, per cent of control (PAK1 (human)) [%] | kinase still bound, per cent of control (CDC2L2 (human)) [%] | kinase still bound, per cent of control (GRK1 (human)) [%] | kinase still bound, per cent of control (BRSK2 (human)) [%] | kinase still bound, per cent of control (STK39 (human)) [%] | kinase still bound, per cent of control (STK38 (human)) [%] | kinase still bound, per cent of control (CHEK1 (human)) [%] | kinase still bound, per cent of control (KDR (human)) [%] | kinase still bound, per cent of control (PKN1 (human)) [%] | kinase still bound, per cent of control (STK32B (human)) [%] | further results |
| --- | --- | --- | --- | --- | --- | --- | --- | --- | --- | --- | --- | --- | --- | --- | --- | --- | --- | --- | --- | --- | --- |
| COc1cc(N2CCN(C)CC2)ccc1Nc1ncc2c(n1)N(C)c1ccccc1C(=O)N2C | 100 | 100 | 100 | 100 | 100 | 100 | 100 | 100 | 18 | 7.6 | 100 | 100 | 100 | 100 | 23 | 100 | 100 | 100 | 100 | 100 | kinase still bound, per cent of control (MAP4K4 (human)): 100%; kinase still bound, per cent of control (MAP4K2 (human)): 100%; kinase still bound, per cent of control (MAPK13 (human)): 100%; kinase still bound, per cent of control (PRKCQ (human)): 100%; kinase still bound, per cent of control (FGFR2 (human)): 100%; kinase still bound, per cent of control (CSNK1G2 (human)): 100%; kinase still bound, per cent of control (CDK15 (human)): 100%; kinase still bound, per cent of control (DDR1 (human)): 100%; kinase still bound, per cent of control (CLK4 (human)): 100%; kinase still bound, per cent of control (CLK1 (human)): 100%; kinase still bound, per cent of control (CAMK1D (human)): 100%; kinase still bound, per cent of control (PRKCD (human)): 100%; kinase still bound, per cent of control (MAP3K9 (human)): 100%; kinase still bound, per cent of control (HIPK1 (human)): 100%; kinase still bound, per cent of control (BLK (human)): 100%; kinase still bound, per cent of control (CAMK2D (human)): 23%; kinase still bound, per cent of control (MYLK (human)): 13%; kinase still bound, per cent of control (HUNK (human)): 100% |
| CCN(CC)CCCCNc1ncc2c(n1)N(C)C(=O)N(c1c(Cl)c(OC)cc(OC)c1Cl)C2 | 100 | 100 | 13 | 100 | 100 | 100 | 100 | 100 | 100 | 100 | 100 | 26 | 100 | 100 | 100 | 100 | 100 | 100 | 100 | 100 | kinase still bound, per cent of control (MAP4K4 (human)): 100%; kinase still bound, per cent of control (MAP4K2 (human)): 100%; kinase still bound, per cent of control (MAPK13 (human)): 100%; kinase still bound, per cent of control (PRKCQ (human)): 100%; kinase still bound, per cent of control (FGFR2 (human)): 2.6%; kinase still bound, per cent of control (CSNK1G2 (human)): 100%; kinase still bound, per cent of control (CDK15 (human)): 100%; kinase still bound, per cent of control (DDR1 (human)): 0.15%; kinase still bound, per cent of control (CLK4 (human)): 100%; kinase still bound, per cent of control (CLK1 (human)): 100%; kinase still bound, per cent of control (CAMK1D (human)): 25%; kinase still bound, per cent of control (PRKCD (human)): 100%; kinase still bound, per cent of control (MAP3K9 (human)): 100%; kinase still bound, per cent of control (HIPK1 (human)): 100%; kinase still bound, per cent of control (BLK (human)): 100%; kinase still bound, per cent of control (CAMK2D (human)): 100%; kinase still bound, per cent of control (MYLK (human)): 100%; kinase still bound, per cent of control (HUNK (human)): 100% |
| C[C@@H](Oc1cc(-c2cnn(C3CCNCC3)c2)cnc1N)c1c(Cl)ccc(F)c1Cl | 88 | 3.9 | 44 | 8.8 | 87 | 47 | 10 | 68 | 54 | 56 | 95 | 0.35 | 92 | 65 | 99 | 68 | 91 | 78 | 38 | 100 | kinase still bound, per cent of control (MAPK13 (human)): 100%; kinase still bound, per cent of control (PRKCQ (human)): 88%; kinase still bound, per cent of control (FGFR2 (human)): 35%; kinase still bound, per cent of control (CSNK1G2 (human)): 100%; kinase still bound, per cent of control (CDK15 (human)): 73%; kinase still bound, per cent of control (TAOK2 (human)): 0.9%; kinase still bound, per cent of control (DDR1 (human)): 0.4%; kinase still bound, per cent of control (CLK4 (human)): 100%; kinase still bound, per cent of control (CLK1 (human)): 84%; kinase still bound, per cent of control (STK32A (human)): 86%; kinase still bound, per cent of control (CAMK1D (human)): 37%; kinase still bound, per cent of control (PRKCD (human)): 100%; kinase still bound, per cent of control (MAP3K9 (human)): 80%; kinase still bound, per cent of control (HIPK1 (human)): 78%; kinase still bound, per cent of control (CAMK2D (human)): 100%; kinase still bound, per cent of control (MYLK (human)): 82%; kinase still bound, per cent of control (HUNK (human)): 74% |
